Data from patent US8765802B2, “Kinase inhibitors, compositions thereof, and methods of use therewith” (Provid Pharmaceuticals, Inc., priority 2007, dated 2014).

How the values were obtained:
[1] = biological target: T1, Chk2 (Homo sapiens, UniProt O96017); assay: Chk2 inhibitor IMAP assay (high-throughput Chk2 screening assay); type: biochemical; details: IMAP fluorescence polarization assay, 10 μM ATP
T1 construct: made in house; host or cells: E. coli BL21 Star (Invitrogen)
Protocol: Compounds set forth in Table 1 were tested in the Chk2 inhibitor IMAP assay described herein in Example 6.84. […] The letters given for the Chk2 EC50 values in Table 1 represent the following ranges: A=<100 nM; B=100-300 nM; C=300-1000 nM; D=1-10 μM; and E>10 μM.
Compounds can be screened for Chk2 inhibitory activity using a high-throughput screening assay based in the immobilized metal ion affinity-based fluorescence polarization (IMAP) assay developed by Molecular Devices. This assay is based on the high affinity binding of phosphate by immobilized metal (MIII) coordination complexes on nanoparticles. A fluorescein-labeled peptide substrate is used as the substrate for the kinase activity of Chk2 in the assay. The IMAP binding reagent stops the kinase reaction. The binding of the binding reagent results in a change in the rate of molecular motion of the peptide and causes an increase in the fluorescence polarization value observed for the fluorescein label attached to the end of the peptide. Thus, inhibition of Chk2 would result in a decrease in fluorescence polarization compared to control.
A specific protocol for screening Compounds for Chk2 inhibitory activity follows.
A Compound is supplied at 1 mM in 0.5 μl DMSO on 384 well plates (such as Greiner or Corning). After thawing, 5 μl DMSO is added to the drug plate. The drug plate is then incubated for 10 minutes to solubilize the Compound. An additional 19.5 μl of reaction buffer (10× stock prepared using 100 mM Tris-HCl, 100 mM MgCl2, 1% BSA, pH 7.2, stored at 4° C.)+1 mM DDT is added to bring the Compound to 4× final concentration. A positive control is also prepared at 4× final concentration. The following control wells are used: less enzyme control (all reagents except enzyme; 5 μl/well), less Compound control (all reagents except Compound; 5 μl/well), positive control (all reagents plus staurosporine at a final concentration of 5 μM; 5 μl/well).
Reagents are then added in the following order to give the following final concentration: 2.5 μl ATP/Chk2tide (Molecular Devices) (10 μM/100 nM final concentration), 1.25 μl Compound (5 μM final concentration inf 5.5% DMSO), and 1.25 μl Chk2 (1:500, 2.4 μg/mL final concentration).
Plates are covered and incubated at room temperature for 60 minutes.
IMAP binding reagent (Molecular Devices) is diluted 1:400 into binding buffer (Molecular Devices). 15 μl of this solution is then added to all wells and the plates are covered and incubated for 30 minutes.
Plates are read using a Tecan Ultra under the fluorescence polarization mode. Gain is set to the less enzyme and less Compound wells for each plate. Excitation 485 nm, emmission 535 nm, Z position 12519 and flashes 5 are used as settings. Raw data from the Tecan reader is imported into an access database for analysis.

[2] = test system: HDMX in MCF7 cells; assay: HDMX degradation in MCF7 cells following DNA damage (Western blot); type: cell-based; details: varying concentrations 2.5 h, then 1 μM topotecan 4 h or 10 Gy IR + 4 h
Protocol: FIG. 2. […] MCF7 cells were treated in the absence (control) or presence of compound 18 at varying concentrations for 2.5 hours. The cells were then exposed to either 1 μM topotecan (TPT) for 4 hours or they were exposed to 10 Gy IR and incubated for 4 hours. Whole cell extracts were made and Western blotting was performed to detect HDMX. The levels of HDMX were quantified from the blots and normalized to actin. The normalized levels of HDMX are depicted as bar graphs under the blots.

[3] = test system: mouse thymocytes; assay: IR-induced apoptosis in mouse thymocytes (PI staining, FACS); type: cell-based; details: thymocytes from Chk2+/+ or Chk2-/- mice, 1 μM for 1 h, 5 Gy IR, 16 h
Protocol: FIG. 3. […] Thymocytes were isolated from Chk2+/+ or Chk2−/− mice by mechanical disaggregation. The isolated thymocytes were treated in the absence or presence of 1 μM compound 18 or ref^λ (J. Wu et al, Bioorganic and Medicinal Chemistry letters, 2007, 17(1), 172, [N-isobutyl analog of compound 7]) for 1 hour. The cells were then exposed to 5 Gy IR and incubated for 16 hours. The cells were then washed in PBS and fixed in ethanol. Propidium isodide (PI) was added in the presence of RNAse A before being subjected to flow cytometry. The graphs show FACS analysis of the PI stained cells.

[4] = test system: OVCAR-4 cells; assay: Combination with camptothecin in OVCAR-4 cells (MTS growth inhibition); type: cell-based, human; details: 48 h, MTS staining, 40 combinations
Protocol: FIG. 4. Compound 18 is synergistic with camptothecin (CPT) in OVCAR-4 cells. OVCAR-4 cells were treated with either compound 18 or CPT as single agents in 96 well tissue culture plates. In addition, the cells were exposed to 40 combinations of compound 18 and CPT. The drug treatments were for 48 hours and the cells were then subjected to MTS staining to determine the growth inhibitory effect. The graph represents a 3-dimensional plot of the MTS data obtained. The upper, light gray surface represents a theoretical surface of additivity that was generated from dose response curves of compound 18 alone and CPT alone. The lower, dark grey surface depicts the surface of the combination of compound 18 and CPT that was generated from data obtained in the MTS assay (shown by the blue circles). Data points lying under the green additivity surface are deemed to synergistic combinations. The bar graph on the right is a 2-dimensional representation of 1 combination of 11 μM compound 18 and 6.25 μM CPT taken from the 3-D model.

T1 sequence (O96017 whole entry): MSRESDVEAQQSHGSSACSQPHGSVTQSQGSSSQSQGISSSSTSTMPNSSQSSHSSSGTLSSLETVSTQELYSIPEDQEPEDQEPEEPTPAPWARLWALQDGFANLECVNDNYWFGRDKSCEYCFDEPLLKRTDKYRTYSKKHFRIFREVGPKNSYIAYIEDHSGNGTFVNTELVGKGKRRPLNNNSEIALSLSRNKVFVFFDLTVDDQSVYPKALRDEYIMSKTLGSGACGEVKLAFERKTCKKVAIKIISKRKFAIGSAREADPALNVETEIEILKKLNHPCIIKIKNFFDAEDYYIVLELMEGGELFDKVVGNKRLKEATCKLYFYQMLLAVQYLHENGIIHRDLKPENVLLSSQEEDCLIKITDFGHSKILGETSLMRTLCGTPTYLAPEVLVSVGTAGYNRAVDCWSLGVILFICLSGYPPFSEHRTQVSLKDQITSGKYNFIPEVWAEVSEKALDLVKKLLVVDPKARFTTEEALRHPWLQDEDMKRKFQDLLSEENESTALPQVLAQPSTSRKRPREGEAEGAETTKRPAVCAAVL

EC50 [1]: < 100 nM
Structure (SMILES): C/C(=N\NC(=N)N)c1ccc(NC(=O)c2cc3cccc([N+](=O)[O-])c3[nH]2)cc1 [Compound 18]
Effect on HDMX degradation following DNA damage [2]: Abrogation of HDMX degradation | Effect on IR-induced apoptosis [3]: abrogation of IR-induced apoptosis | Combination effect with camptothecin (CPT) [4]: synergistic
